Activity data for 20 molecules are collected here from ChEMBL document CHEMBL4359927, “Structural optimization and neurotrophic activity evaluation of neurotrophic gentiside derivatives” (Bioorg Med Chem Lett, 2019).

Data set [1] deals with PC-12. The data set can be described thus: Induction of neurite outgrowth in rat PC12 cells assessed as increase in neurite length at 1 uM incubated for 48 hrs by phase contrast microscopy. It is filed as functional, cell-based.
In data set [2] the test system is PC-12. Kind of data set: Cytotoxicity against rat PC12 cells assessed as reduction in cell viability at >5 uM incubated for 48 hrs. It is filed as cell-based. The following applies: pc-12, 48 h.
In data set [3] the test system is PC-12. The data set can be described thus: Cytotoxicity against rat PC12 cells assessed as reduction in cell viability at 10 uM incubated for 48 hrs. Type of data set: cell-based. The following applies: pc-12, 48 h.
The subject of data set [4] is PC-12. Kind of data set: Induction of neurite outgrowth in rat PC12 cells assessed as increase in neurite length at 10 uM incubated for 48 hrs by phase contrast microscopy. It is filed as functional, cell-based.
The test system of data set [5] is PC-12. The data set can be described thus: Induction of neurite outgrowth in rat PC12 cells assessed as increase in neurite length at 30 uM incubated for 48 hrs by phase contrast microscopy. It is filed as functional, cell-based.
Data set [6] has as its system PC-12. The data set can be described thus: Induction of neurite outgrowth in rat PC12 cells assessed as increase in neurite length incubated for 48 hrs by phase contrast microscopy. It is filed as functional, cell-based.

The source made the active and inactive calls. No cut-off for these calls is given here.

For the molecule `CCCCCCCCCCCCCCOC(=O)c1cccc2nc[nH]c12`, the result in the data set with PC-12 [1] was inactive.

Turning to `CCCCCCCCCCCCCCOC(=O)c1cccc(O)c1O`, in the data set on PC-12 [1], the outcome was Active. Also, the Activity entry in the data set on PC-12 [2] and in the data set with PC-12 [3] was “Toxic” each time.

Regarding `O=C(Oc1ccc(-c2ccccc2)cc1)c1cccc(O)c1O`, in the data set with PC-12 [4], the result was inactive.

With `CCCCCCCC/C=C/c1ccc(COC(=O)c2cccc(O)c2O)cc1`, the result with PC-12 [1] was Active.

On to `O=C(OCCCCc1ccccc1)c1cccc(O)c1O`, for which the result with PC-12 [5] was inactive.

In the case of `O=C(OCCc1ccccc1)c1cccc(O)c1O`, in the data set with PC-12 [5], the outcome was inactive.

`CCCCCc1ccc(-c2ccc(COC(=O)c3cccc(O)c3O)cc2)cc1`: the outcome with PC-12 [4] was inactive.

For `O=C(OCCCCCCCCCCc1ccccc1)c1cccc(O)c1O`, in the data set on PC-12 [5], the outcome was inactive.

For `CCCCCCC/C=C/c1ccc(COC(=O)c2cccc(O)c2O)cc1`, the result with PC-12 [1] was Active.

As for `O=C(OCc1ccc(-c2ccccc2)cc1)c1cccc(O)c1O`, in the data set with PC-12 [4], the outcome was inactive.

Take `O=C(OCc1ccccc1)c1cccc(O)c1O`: in the data set on PC-12 [5], the outcome was Active.

In the case of `CCCCCCCCCCc1ccc(COC(=O)c2cccc(O)c2O)cc1`, the outcome in the data set with PC-12 [1] was Active.

As for `CCCCCCCCCc1ccc(COC(=O)c2cccc(O)c2O)cc1`, the result with PC-12 [1] was Active. The results for the Activity entry in the data set with PC-12 [6], in the data set on PC-12 [2] and in the data set with PC-12 [3] were “Dose-dependent effect”, “Toxic” and “Toxic”, respectively.

Take `CCCCCCCCCCCCCCOC(=O)c1ccn[nH]1`: the result with PC-12 [1] was inactive.

Take `O=C(Oc1ccccc1)c1cccc(O)c1O`: the outcome in the data set with PC-12 [5] was Active.

Consider `CCCCCCCCCCCCCCOC(=O)c1c(O)c(=O)[nH]c2ccccc12`, for which the outcome in the data set with PC-12 [1] was Active. The Activity entry is “Dose-dependent effect” in the data set on PC-12 [6], “Toxic” with PC-12 [2] and “Toxic” in the data set with PC-12 [3].

As for `CCCCCCCCCCCCCCOC(=O)c1csc(N)n1`, the result in the data set with PC-12 [1] was inactive.

Regarding `O=C(OCCCc1ccccc1)c1cccc(O)c1O`, the result in the data set with PC-12 [5] was inactive.

Take `CCCCCCc1ccc(-c2ccc(OC(=O)c3cccc(O)c3O)cc2)cc1`: in the data set with PC-12 [4], the result was inactive.

For the molecule `CCCCCCCCCCc1ccc(OC(=O)c2cccc(O)c2O)cc1`, the result with PC-12 [1] was Active. Also, the Activity entry with PC-12 [6] is “Dose-dependent effect”; in the data set with PC-12 [2], “Toxic”; in the data set on PC-12 [3], “Toxic”.
